Results: patent publication US20030203963A1, “Antimicrobial agent” (priority 2001, published 2003)

Assays:
L. monocytogenes 272 [1] = experiment: Bioscreen growth inhibition test; assay type: cell-based, Listeria monocytogenes; details: BS010411, 24 h at 30° C.
Protocol: (§1) For broth cultures and Bioscreen testing most bacteria were grown in Brain Heart Infusion (BHI, Oxoid, pH 7.4). Lactobacillus sake A10 was grown in de Man, Rogosa, Sharpe medium ([…], Oxoid). Yeasts were grown in Sabouraud Liquid medium (SLM, Oxoid). Most bacteria were cultured at 30° C. Lactic acid bacteria were grown on solid medium in enriched CO2 atmosphere. Clostridium species were grown in Reinforced Clostridial Medium (RCM) at 37° C. anaerobically. Brochothrix thermosphacta fungi and yeasts were grown at 25° C. Fungi were cultured on Malt Extract Agar (MEA, Oxoid).
(§2) An automated Microbiology Reader Bioscreen C was used to measure growth curves of the strains in the presence and absence of APP. The Bioscreen C measures the development of turbidity (i.e. growth) kinetically by vertical photometry in 200 wells of a honeycomb microtitre plate, simultaneously. The system consists of a Bioscreen C analyser, which is an incubator and measurement unit, integrated with a PC, software (BioLink v 5.30), printer and a ‘Honeycomb 2’ cuvette multiwell plate. Growth curve data can be analysed within the BioLink software or exported to programs such as Excel.
(§3) Broth culture media were dispensed in 270 μl volumes into the wells as directed. Serial dilutions of a filter-sterilised APP stock solution were then dispensed into the same wells, as appropriate. The wells were inoculated with 30 μl of an appropriately diluted overnight broth culture or spore suspension, to give a final inoculum level of […]. The tests were incubated in the Bioscreen C for either 24 h at 30° C., or 72 h at 25° C. (depending on the micro-organism under investigation) with readings taken every 20 minutes after the trays were shaken. After the incubation period was complete the data were exported to Excel for analysis.

L. monocytogenes 358 = experiment: Bioscreen growth inhibition test; assay type: cell-based, Listeria monocytogenes; details: BS010510, 24 h at 30° C., APP20010213
Protocol: as §1, §2, §3

L. monocyt. Scott A = experiment: Bioscreen growth inhibition test; assay type: cell-based, Listeria monocytogenes; details: BS010510, 24 h at 30° C., APP20010213
Protocol: as §1, §2, §3

L. monocytogenes S23 = experiment: Bioscreen growth inhibition test; assay type: cell-based, Listeria monocytogenes; details: BS010411, 24 h at 30° C.
Protocol: as §1, §2, §3

L. monocyt. F6861 = experiment: Bioscreen growth inhibition test; assay type: cell-based, Listeria monocytogenes; details: BS010510, 24 h at 30° C., APP20010213
Protocol: as §1, §2, §3

[2] = system: S cerevisiae var. paradoxus H103; experiment: Bioscreen growth inhibition test; assay type: cell-based, Saccharomyces cerevisiae var. paradoxus; details: APP 213, BS010420, 72 h/25° C.
Protocol: as §1, §2
(§4) Broth culture media were dispensed in 270 μl volumes into the wells as directed. […] (depending on the micro-organism under investigation) with readings taken every 20 minutes after the trays were shaken. […]

L. monocytogenes 272 [3] = experiment: Test in cooked sausage meat slurry; assay type: cell-based, Listeria monocytogenes
Source text: (§5) 500 g of bologna sausage meat mixture was mixed with 500 g Brain Heart Infusion broth (BHIB) to make a homogeneous slurry. The bologna sausage meat mix comprised (g per kg): lean beef 320; lean pork 202; lard 250; water 40; glucose 5; starch 155; spice mix 3.75; sodium glutamate 0.5; sodium erythorbate 0.545; sodium di-phosphate 3; NaCl 20; sodium nitrite 0.15. 200 g samples of the meat slurry were autoclaved. While the meat was still warm it was re-mixed thoroughly. When the meat had cooled it was inoculated with 2 ml of 10^5 cfu/ml spore or cell suspension, and re-mixed again. Each inoculated meat sample was divided into 3×50 g samples, and 1 ml of either SDW, 2.5% or 5% APP solution (batch number APP 20010215) was added to prepare meat samples containing 0, 500 and 1000 ppm APP. The meat slurry was again shaken thoroughly to ensure even mixing, an initial viable count was taken and the samples incubated at 8° C. Samples were taken at twice-weekly intervals. The pH of the sausage meat slurry was 6.2.

S. cerevisiae 9763 = experiment: Chicken soup trial at 20° C.; assay type: cell-based, Saccharomyces cerevisiae; details: 2000 ppm; chicken soup at 20° C., TCSM010430, APP20010213
Source text: A local supermarket brand of cream of chicken soup was used as a model food system. 600 g packs were purchased from the local supermarket. This was a ‘fresh home-made type’ of soup that was stored in the chill cabinet, with a short shelf life. It was chosen because it is a rich, nutritious food system containing a range of food components including meat, dairy and vegetable.
Ingredients were labelled as: chicken stock (water, duck fat, chicken, salt, flavourings, yeast extracts, pork gelatine, glucose syrup, vegetable concentrate, milk protein, sugar, malto-dextrin, vegetable oil, citric acid, lactose, chicken fat), ilk, chicken (9%), cream (8%), onion, potato, vegetable oil, modified maize starch, wheat flour, lemon juice, salt, white pepper. pH 5.912. Protein: 3.3%; carbohydrate: 4.7%; fat: 7.2%; fibre: 0.2%; sodium: 0.1%
For the test the soup was mixed 2:1 in water (to facilitate sampling and mixing) and sterilised by autoclaving at 121° C. for 15 minutes. For each experiment the pH of the soup was recorded; this was between pH 5.79-5.88.
For TCS010430/20 (incubated at 20° C.) samples were prepared in 18.8 g quantities, to which 1 g of a suitable filter-sterilised APP stock solution was added and an appropriately diluted 0.2 ml inoculum. Great care was again taken to ensure homogeneous distribution of the APP and micro-organisms. […]

B. cereus 204 = experiment: Test in cooked sausage meat slurry; assay type: cell-based, Bacillus cereus
Source text: as §5

Y. enterocolitica S16 = experiment: Bioscreen growth inhibition test; assay type: cell-based, Yersinia enterocolitica; details: BS010510, 24 h/30, APP20010213
Protocol: as §1, §2, §4

[4] = 1000 ppm, cooked sausage meat slurry at 8° C., pH 6.2, TSM010605
[5] = Cooked sausage meat slurry at 8° C. pH 6.2, (1000)

`O=C1CC(CO)OC=C1O` (centres unmarked) [APP, Ascopyrone P] was tested, and the “APP level causing significant inhibition” value (L. monocytogenes 272 [1]; APP20010213) was 2000 ppm, the “APP level causing total inhibition” value (L. monocytogenes 272 [1]; APP20010213) was 4000 ppm and the “APP level causing significant inhibition” value (L. monocytogenes 272 [1]; APP20010215) was 2000 ppm. The “APP level causing total inhibition” value (L. monocytogenes 272 [1]; APP20010215) was over 4000 ppm, the “APP level causing total inhibition” value (L. monocytogenes 358) was 3000 ppm and the “APP level causing significant inhibition” value (L. monocyt. Scott A) was 2000 ppm. For the same compound, the “APP level causing total inhibition” value (L. monocyt. Scott A) was 3000 ppm, the “APP level causing significant inhibition” value (L. monocytogenes S23; APP20010213) was 2000 ppm and the “APP level causing total inhibition” value (L. monocytogenes S23; APP20010213) was 4000 ppm. For the same compound, the “APP level causing significant inhibition” value (L. monocytogenes S23; APP20010215) was 1000 ppm, the “APP level causing total inhibition” value (L. monocytogenes S23; APP20010215) was 4000 ppm and the “APP level causing significant inhibition” value (L. monocyt. F6861) was 2000 ppm. For the same compound, the “APP level causing total inhibition” value (L. monocyt. F6861) was 3000 ppm, the “APP level causing significant inhibition” value [2] was 2000 and the “APP level causing total inhibition” value [2] was over 4000. The “10^6 reached at” value (L. monocytogenes 272 [3]; 1000 ppm, cooked sausage meat slurry at 8° C., TSM010605, controls 7 d) was 7 d, the Effect on growth (L. monocytogenes 272 [3]; [4]) was “No total inhibition” and the “Partial inhibition (effect on growth of target organism by APP)” value (L. monocytogenes 272 [3]; [5]) was “L. monocytog”. The Effect on growth (S. cerevisiae 9763) was “No effect with 2000 ppm”, the “10^6 reached at” value (B. cereus 204; 1000 ppm, cooked sausage meat slurry at 8° C., TSM010605, controls 5 d) was 7 d and the Effect on growth (B. cereus 204; [4]) was “No total inhibition”. The “Partial inhibition (effect on growth of target organism by APP)” value (B. cereus 204; [5]) was “B. cereus (1000)” and the “APP level causing total inhibition” value (Y. enterocolitica S16) was 2000 ppm.
